Assay results as given in patent US10667512B2, “Terpene-containing compositions and methods of making and using them” (Eden Research PLC, priority 2005, dated 2020).
Like-named read-outs stand apart in the source and are kept apart here.

Legend:
[1] = tested on: S. aureus; assay: MIC of terpene emulsions and fresh or freeze-dried Baker's YP / SAF Mannan encapsulated terpenes; type: cell-based; settings: for MIC, Bakers Freeze Dried / MIC, Bakers Fresh: encapsulated in Baker's YP; for MIC, SAF Mannan Freeze Dried / MIC, SAF Mannan Fresh: encapsulated in SAF Mannan; for MIC, Emulsion: terpene emulsion
Protocol: The results of a protocol performed to compare the MIC of fresh versus freeze dried hollow glucan particle encapsulated terpene formulations are shown below in Table 13. A simple terpene emulsion was also tested and the results are shown for comparison.

[2] = Terpene loading into yeast particles, absence of free terpene after centrifugation; type: physicochemical; settings: for Vol. loaded: 500 μl of 250 mg/ml; for % Loaded w/w: terpene to particle weight; for terpene emulsion absorbed and encapsulated per 10 mg of YP: Baker's YP 20 mg/ml; for terpene emulsion absorbed and encapsulated per 125 mg of YP: Baker's YP 250 mg/ml
Protocol: (§1) Samples were centrifuged at 14,000×g for 10 minutes and the appearance of free terpene floating on the aqueous layer was scored.
The expression “free terpene” refers to the visible presence of terpene in the centrifuged reaction mixture. The absence of free terpene indicates complete absorption of the terpene by the particles. The highest volume of terpene absorbed by the particles, as evidenced by the absence of free terpene, was recorded as the maximal volume of absorbed terpene emulsion.
as §1
The expression “free terpene” refers to the visible presence of terpene in the centrifuged reaction mixture. The absence of free terpene indicates complete absorption of the terpene by the YP. The highest volume of terpene absorbed by the YP, as evidenced by the absence of free terpene, was recorded as the maximal volume of absorbed terpene emulsion.
Increasing volumes of terpene emulsion were mixed with 250 mg/ml Baker's YP or 250 mg/ml SAF Mannan™ overnight at room temperature as shown in Tables 7 and 8. Samples were centrifuged at 14,000×g for 10 minutes and the appearance of free terpene floating on the aqueous layer was scored. The highest volume of terpene emulsion absorbed by Baker's YP or SAF Mannan™ as evidenced by the absence of free terpene was recorded as the volume of absorbed terpene emulsion. Colour of encapsulated terpenes in the pellet was recorded.
Percentage loaded represents a ratio of the amount of terpene loaded to the amount of particle present (weight for weight).

[3] = tested on: E. coli; settings: cited from earlier work
[4] = Citral solution and stable suspension; type: physicochemical
Excerpt: In one embodiment the terpene component includes one or more terpenes which contain oxygen.

[5] = type: physicochemical
Protocol: The reactions were incubated for 1, 3, 6, 9 and 24 hours at room temperature or 37° C. After incubation samples were centrifuged at 14,000×g for 10 minutes and the appearance of free terpene floating on the aqueous layer was scored. The highest volume of terpene absorbed by the particles as evidenced by the absence of free terpene was recorded as the volume of absorbed terpene emulsion. Colour of the encapsulated pellet was scored at 24 hours.

[6] = tested on: H. pylori; settings: in vitro; cited from earlier work

Compound | MIC, Bakers Freeze Dried [1] | MIC, Bakers Fresh [1] | MIC, SAF Mannan Freeze Dried [1] | MIC, SAF Mannan Fresh [1] | MIC, Emulsion [1] | Vol. loaded ([2]; maximal loading in Baker's YP) | % Loaded w/w ([2]; maximal loading in Baker's YP) | Vol. loaded ([2]; maximal loading in SAF Mannan) | % Loaded w/w ([2]; maximal loading in SAF Mannan) | terpene emulsion absorbed and encapsulated per 10 mg of YP [2] | terpene emulsion absorbed and encapsulated per 125 mg of YP [2] | concentration in growth media that reduced the concentration of E. coli [3] | concentration with bactericidal effect [3] | concentration up to which a solution can be made [4] | concentration up to which a stable suspension can be formed [4] | protection of citral from oxidation ([5]; in Baker's YP) | protection of citral from oxidation ([5]; in SAF Mannan) | concentration that inhibited the growth of H. pylori [6]
C=CCc1ccc(O)c(OC)c1 [Eugenol] | 0.05 μg/ml terpene | 0.03 μg/ml terpene | 0.05 μg/ml terpene | 0.01 μg/ml terpene | 0.12 μg/ml terpene | 75 µL | 67% w/w | 112.5 µL | 100% w/w |  |  |  |  |  |  |  |  | 
L-carvone | >0.04 μg/ml terpene | 0.1 μg/ml terpene | >0.02 μg/ml terpene | 0.01 μg/ml terpene | 3.75 μg/ml terpene | 37.5 µL | 33.3 % w/w | 112.5 µL | 100% w/w | at least 16.5 μl | at least 112.5 μl |  |  |  |  |  |  | 
CC(C)=CCCC(C)=CC=O [Citral, 3,7-dimethyl-2,6-octadien-1-al] | 0.05 μg/ml terpene | 0.01 μg/ml terpene | >0.03 μg/ml terpene | 0.01 μg/ml terpene | 0.94 μg/ml terpene | 75 µL | 67% w/w | 150 µL | 133% w/w | at least 5 μl | at least 75 μl | more than 0.01% | 0.08% | up to 500 ppm | up to 2500 ppm | not by the Baker's YP | protected from oxidation | 
CC(C)=CCC/C(C)=C/CO [Geraniol] | 0.06 μg/ml terpene | 0.03 μg/ml terpene | >0.03 μg/ml terpene | 0.02 μg/ml terpene | 0.47 μg/ml terpene | 75 µL | 67% w/w | 150 µL | 133% w/w |  |  |  |  |  |  |  |  | 2 mg/L
